From patent publication US20080063628A1, “METHODS TO PROMOTE CELL DIFFERENTIATION” (priority 2006, published 2008)

Test system: amniotic fluid-derived cell line AFCA009-A
Test: Trichostatin A 24 h time course, gene expression by Real-Time PCR (Example 2)
Format: cell-based, human
Conditions: 1.25 μM
Description: Amniotic fluid derived cells were seeded into 24-well tissue culture plates at a density of 5000/cm^2 and cultured in AMNIOMAX medium (Invitrogen) under standard cell culture conditions until confluent. Cells were obtained according to methods described in Example 14. After reaching confluence, 1.25 μM trichostatin A diluted in DMSO and medium was added to sample wells; an equivalent concentration of DMSO was added to control wells as a no treatment control.
RNA samples were obtained from treated cultures at 30 minutes, 1.5 hours, 3 hours, 6 hours, 12 hours, and 24 hours following addition of trichostatin A or DMSO. Culture medium was removed, cells were washed with PBS, and RLT lysis buffer with β-mercaptoethanol (Qiagen) was added. RNA was purified using the RNeasy Mini Kit (Qiagen). RNA quantity and quality was determined using a spectrophotometer, and cDNA was made using the iScript cDNA synthesis kit (BioRad).
Expression levels of Sox17, HNF-3 beta, Pdx-1, insulin, and glucagon were determined by Real-Time PCR. Samples of 20 ng cDNA were used in each reaction, performed on the Applied Biosystems 7500 according to methods described in Example 15. Data analysis was performed using the accompanying software. Human pancreas cDNA was included as a positive control, and results were normalized against GAPDH expression levels.
Real-time PCR amplifcation and quantitative analysis. Unless otherwise stated, all reagents were purchased from Applied Biosystems. Real-time PCR reactions were performed using the ABI PRISM™ 7500 Sequence Detection System. TAQMAN™ FAST UNIVERSAL PCR MASTER MIX™ (ABI, CA) was used with 20 ng of reverse transcribed RNA in a total reaction volume of 20 μl. Each cDNA sample was run in duplicate to allow correction of pipetting errors. Primers and FAM-labeled TAQMAN™ probes were used at concentrations of 200 nM. The level of expression for each target gene was normalized using the pre-developed Applied Biosystem's human glyceraldehyde-3-phosphate dehydrogenase (GAPDH) endogenous control kit. Primers and probes were designed using either ABI PRISM PRIMER EXPRESS™ software or a pre-developed ABI gene analysis kit. For each gene, either one of the primers or the probe were designed to be exon-boundary spanning. This eliminated the possibility of the primers/probe binding to any genomic DNA present. The primer and probe sets are listed as follows: Pdx-1 (Hs00426216), Insulin (Hs00355773), glucagon (Hs00174967), and FoxA2 (HNF 3-beta) (Hs00232764). The remaining primers were designed using the PRIMERS program (ABI, CA). After an initial 95° C. incubation for 20 sec, samples were cycled 40 times in two stages: a denaturation step at 95° C. for 3 sec, followed by an annealing/extension step at 60° C. for 30 sec.
For each primer/probe set, a cycle time value was determined as the cycle number at which the fluorescence intensity of the PCR reaction reached a specific value in the middle of the exponential region of amplification. An increase in expression of a gene corresponded to a decrease in the number of cycles required for the fluorescence intensity to reach this value.

**Q.** What does the source list for `CC(/C=C/C(=O)NO)=C\[C@@H](C)C(=O)c1ccc(N(C)C)cc1` [trichostatin A]?
**A.** HNF-3 beta gene expression (0.5 h): + (detectable between 35 and 40 cycles by RT-PCR); Insulin gene expression (0.5 h): + (detectable between 35 and 40 cycles by RT-PCR); PDX-1 gene expression (0.5 h): nd (not detectable at >40 cycles by RT-PCR); Sox17 gene expression (0.5 h): +++ (detectable at less than 35 cycles by RT-PCR with std error less than 0.9); glucagon gene expression (0.5 h): nd (not detectable at >40 cycles by RT-PCR); HNF-3 beta RT-PCR detection cycle (30 minutes): > 35 cycles; HNF-3 beta gene expression (1.5 h): + (detectable between 35 and 40 cycles by RT-PCR); Insulin gene expression (1.5 h): + (detectable between 35 and 40 cycles by RT-PCR); PDX-1 gene expression (1.5 h): nd (not detectable at >40 cycles by RT-PCR); Sox17 gene expression (1.5 h): +++ (detectable at less than 35 cycles by RT-PCR with std error less than 0.9); glucagon gene expression (1.5 h): nd (not detectable at >40 cycles by RT-PCR); HNF-3 beta gene expression (3 h): +++ (detectable at less than 35 cycles by RT-PCR with std error less than 0.9); Insulin gene expression (3 h): + (detectable between 35 and 40 cycles by RT-PCR); PDX-1 gene expression (3 h): nd (not detectable at >40 cycles by RT-PCR); Sox17 gene expression (3 h): +++ (detectable at less than 35 cycles by RT-PCR with std error less than 0.9); glucagon gene expression (3 h): nd (not detectable at >40 cycles by RT-PCR); HNF-3 beta gene expression (6 h): +++ (detectable at less than 35 cycles by RT-PCR with std error less than 0.9); Insulin gene expression (6 h): nd (not detectable at >40 cycles by RT-PCR); PDX-1 gene expression (6 h): + (detectable between 35 and 40 cycles by RT-PCR); Sox17 gene expression (6 h): +++ (detectable at less than 35 cycles by RT-PCR with std error less than 0.9); glucagon gene expression (6 h): nd (not detectable at >40 cycles by RT-PCR); Pdx-1 RT-PCR detection cycle (6 hours): > 35 cycles; HNF-3 beta gene expression (12 h): +++ (detectable at less than 35 cycles by RT-PCR with std error less than 0.9); Insulin gene expression (12 h): + (detectable between 35 and 40 cycles by RT-PCR); PDX-1 gene expression (12 h): +++ (detectable at less than 35 cycles by RT-PCR with std error less than 0.9); Sox17 gene expression (12 h): +++ (detectable at less than 35 cycles by RT-PCR with std error less than 0.9); glucagon gene expression (12 h): + (detectable between 35 and 40 cycles by RT-PCR); glucagon RT-PCR detection cycle (12 hours): > 35 cycles; HNF-3 beta gene expression (24 h): +++ (detectable at less than 35 cycles by RT-PCR with std error less than 0.9); Insulin gene expression (24 h): + (detectable between 35 and 40 cycles by RT-PCR); PDX-1 gene expression (24 h): +++ (detectable at less than 35 cycles by RT-PCR with std error less than 0.9); Sox17 gene expression (24 h): +++ (detectable at less than 35 cycles by RT-PCR with std error less than 0.9); glucagon gene expression (24 h): +++ (detectable at less than 35 cycles by RT-PCR with std error less than 0.9); HNF-3 beta RT-PCR detection cycle (24 hours): < 35 cycles; Pdx-1 RT-PCR detection cycle (24 hours): < 35 cycles; Pdx-1 gene expression relative to human pancreas (24 hours): ~0.1 % of human pancreas levels; glucagon RT-PCR detection cycle (24 hours): < 24 cycles
